According to US6528295B2, “Protein phosphatase methylesterase” (priority 1998, dated 2003):
Entries after “also recorded” stand apart in the source; their conditions may differ. *1 amine or outer side, *2 acyl side, *3 side chain or, on linkers, in order; H or OH if unused. Where a SMILES comes first, the peptide text is derived from it. Bridges are numbered along the chain shown (N, C = ends). [ ]: non-standard residue; d: D form. Adda = CO[C@@H](Cc1ccccc1)[C@@H](C)/C=C(C)/C=C/[C@H](N[*:1])[C@H](C)C(=O)[*:2]; dAsp(3S-Me) = C[C@H](C(=O)[*:3])[C@@H](N[*:1])C(=O)[*:2]; d(γGlu) = O=C(O)[C@@H](CCC(=O)[*:2])N[*:1]; NMeDha = C=C(NC)C(=O)O

How the values were obtained:
PP2A methyltransferase = conditions: cited from earlier work
[1] = tested on: phosphorylase a and cdc2-phosphorylated histone H1; assay: Phosphatase activity in anti-HA tag immunoprecipitates of wt and mutant C subunits; assay type: biochemical; conditions: normalized to wt, four independent experiments
PP2A = PP2A (Homo sapiens, UniProt P67775); assay type: biochemical
Chain of PP2A (P67775 whole entry): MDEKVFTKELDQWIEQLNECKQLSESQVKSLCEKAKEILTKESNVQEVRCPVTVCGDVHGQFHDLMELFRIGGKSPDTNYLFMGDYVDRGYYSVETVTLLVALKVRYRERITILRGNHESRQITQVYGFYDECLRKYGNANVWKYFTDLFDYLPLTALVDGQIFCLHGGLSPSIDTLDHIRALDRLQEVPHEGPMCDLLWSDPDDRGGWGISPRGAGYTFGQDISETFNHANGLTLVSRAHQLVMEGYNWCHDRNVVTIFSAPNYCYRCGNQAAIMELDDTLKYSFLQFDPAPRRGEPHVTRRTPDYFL

H59Q/PME-1 complex = molecular target: T1, H59Q/PME-1 complex (Homo sapiens, UniProt P67775, H59Q); assay type: binding, mouse
T1 construct: expressed in transfected cells; host or cells: NIH3T3 (A3); MT-transformed NIH3T3 (A8); PME-1 is endogenous
T1 sequence (P67775 whole entry H59Q): as the sequence (P67775 whole entry) above, with H59Q counted along it
T1 sequence (Q76MZ3 whole entry partner): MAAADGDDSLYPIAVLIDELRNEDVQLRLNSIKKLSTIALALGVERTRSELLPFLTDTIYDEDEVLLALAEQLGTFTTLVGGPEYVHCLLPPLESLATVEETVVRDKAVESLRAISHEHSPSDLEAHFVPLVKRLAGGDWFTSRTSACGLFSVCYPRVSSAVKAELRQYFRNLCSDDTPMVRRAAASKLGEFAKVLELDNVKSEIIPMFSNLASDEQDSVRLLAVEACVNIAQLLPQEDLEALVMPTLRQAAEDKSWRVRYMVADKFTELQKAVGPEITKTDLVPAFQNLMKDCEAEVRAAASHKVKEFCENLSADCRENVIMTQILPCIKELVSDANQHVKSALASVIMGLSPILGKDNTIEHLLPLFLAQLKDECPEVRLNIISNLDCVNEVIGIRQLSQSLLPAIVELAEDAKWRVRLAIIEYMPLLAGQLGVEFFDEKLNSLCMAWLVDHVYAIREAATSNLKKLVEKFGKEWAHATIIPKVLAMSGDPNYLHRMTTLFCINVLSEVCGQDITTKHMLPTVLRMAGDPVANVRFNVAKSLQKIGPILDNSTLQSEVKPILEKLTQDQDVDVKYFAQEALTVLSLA

human PME-1 [2] = assay type: biochemical
[3] = tested on: 46 kDa PP2A methylesterase; conditions: cited from earlier work
PME-1 = molecular target: T2, PME-1 (Mus musculus, UniProt Q8BVQ5); assay: Immunoprecipitation assay of PME-1 binding to H59Q/301Stop versus H59Q; conditions: all seven experiments
T2 construct: endogenous in cells; host or cells: MT-transformed NIH3T3 cells (C subunit mutants stably transfected)
T2 sequence (Q8BVQ5 1-386): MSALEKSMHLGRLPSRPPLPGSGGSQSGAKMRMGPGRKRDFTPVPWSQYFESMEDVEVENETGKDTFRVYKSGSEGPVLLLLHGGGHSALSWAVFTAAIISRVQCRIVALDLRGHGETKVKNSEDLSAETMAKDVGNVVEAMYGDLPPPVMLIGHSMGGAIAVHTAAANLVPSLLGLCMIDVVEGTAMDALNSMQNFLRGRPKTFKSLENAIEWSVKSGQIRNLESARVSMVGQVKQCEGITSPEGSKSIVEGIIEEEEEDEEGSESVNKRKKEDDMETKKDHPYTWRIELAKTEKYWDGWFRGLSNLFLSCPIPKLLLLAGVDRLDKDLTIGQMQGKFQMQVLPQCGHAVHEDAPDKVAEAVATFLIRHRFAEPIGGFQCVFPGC

human PME-1 [4] = molecular target: human PME-1 (Homo sapiens, UniProt Q9Y570); assay type: biochemical
Chain of human PME-1 (Homo sapiens, UniProt Q9Y570) (Q9Y570 2-386): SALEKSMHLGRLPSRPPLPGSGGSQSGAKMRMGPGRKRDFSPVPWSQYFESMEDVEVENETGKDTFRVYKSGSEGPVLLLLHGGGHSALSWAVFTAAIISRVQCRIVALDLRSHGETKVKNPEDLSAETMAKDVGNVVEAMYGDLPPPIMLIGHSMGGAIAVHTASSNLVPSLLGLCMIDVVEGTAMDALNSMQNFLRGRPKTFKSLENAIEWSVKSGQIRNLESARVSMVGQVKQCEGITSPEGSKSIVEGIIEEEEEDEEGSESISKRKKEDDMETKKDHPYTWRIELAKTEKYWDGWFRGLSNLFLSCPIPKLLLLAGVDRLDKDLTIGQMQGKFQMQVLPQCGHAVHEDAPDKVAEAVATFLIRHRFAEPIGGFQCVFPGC

C=C1C(=O)N[C@H](C)C(=O)N[C@@H](CC(C)C)C(=O)N[C@@H](C(=O)O)[C@H](C)C(=O)N[C@@H](CCCNC(=N)N)C(=O)N[C@@H](/C=C/C(C)=C/[C@H](C)[C@H](Cc2ccccc2)OC)[C@H](C)C(=O)N[C@@H](C(=O)O)CCC(=O)N1C [microcystin-LR] (R[Adda][d(γGlu)][NMeDha][dA]L[dAsp(3S-Me)]-OH; lactam N-7)
inhibition of the PP2A methyltransferase (PP2A methyltransferase): inhibited

wt: HA-tagged wild-type PP2A C subunit
C subunit-associated phosphatase activity, cdc2-phosphorylated Histone H1 (Mean ± s.d.) ([1]; substrate cdc2-phosphorylated histone H1): 100 % wt
C subunit-associated phosphatase activity, phosphorylase a (Means ± s.d.) ([1]; substrate phosphorylase a): 100 % wt

[F-].[Na+] [sodium fluoride]
inhibition of PP2A (PP2A): 91±10%
amount of PME-1 bound to (complexed with) H59Q C subunit (H59Q/PME-1 complex): reduce; also recorded: decreased

C=C1[C@@H](O)[C@@H]2O[C@]3(CC[C@H](/C=C/[C@@H](C)[C@@H]4CC(C)=C[C@@]5(O[C@H](C[C@@](C)(O)C(=O)O)CC[C@H]5O)O4)O3)CC[C@H]2O[C@@H]1[C@@H](O)C[C@H](C)[C@H]1O[C@@]2(CCCCO2)CC[C@H]1C [okadaic acid]
inhibition of PP2A (PP2A): 97±4%
methylesterase activity of bacterially expressed PME-1 (human PME-1 [2]): inhibited
amount of PME-1 bound to (complexed with) H59Q C subunit (H59Q/PME-1 complex): reduce; also recorded: decreased
inhibition of the 46 kDa PP2A methylesterase [3]: inhibited
inhibition of the PP2A methyltransferase (PP2A methyltransferase): inhibited

H59Q/301Stop: double mutant combining H59Q with deletion of the nine C subunit carboxy-terminal amino acids 301-309
overall mean reduction of PME-1 bound relative to H59Q (PME-1): 28%

O=S(=O)(F)Cc1ccccc1 [PMSF, phenylmethylsulfonyl fluoride]
methylesterase activity of bacterially expressed PME-1 (human PME-1 [4]): not

sodium vanadate
inhibition of PP2A (PP2A): 25±18%
amount of PME-1 bound to (complexed with) H59Q C subunit (H59Q/PME-1 complex): not
